In brackets after ≈: the same amount, converted by molar mass. Read-outs that look alike come from different tables or passages of the source.
Experiments:
[1] = tested on: K. pneumoniae SI-117 producing VIM-1; assay: Broth microdilution MIC in CAMHB; format: cell-based; conditions: Klebsiella pneumoniae, read-out: Minimum Inhibitory Concentration, K. pneumoniae SI-117
Method: (§1) Example III: In Vitro Antibacterial Assays
(§2) To determine the ability of test compounds to inhibit the growth of bacterial strains, classic cell based broth microdilution minimum inhibitory concentration (MIC) assays were employed. MIC assays are performed according to CLSI methods except where otherwise noted (CLSI, 2018 and CLSI, 2019). The reference type strain E. coli ATCC 25922; the wild-type parent strain E. coli AG100; the hyper-permeable E. coli 901C and E. coli D22; and the E. coli AG100A strain lacking the acrAB efflux pump encoding genes were used to determine the ability of the PBP inhibitors to penetrate the outer membrane of gram-negative bacteria and inhibit bacterial growth. […] The P. aeruginosa ATCC 27853 and A. baumannii ATCC 19606, along with the hyper-permeable P. aeruginosa ATCC 35151 and an engineered efflux pump-compromised strain of P. aeruginosa (ΔmexAB-oprM) were used to determine the ability of PBP inhibitors to penetrate the outer membrane of P. aeruginosa and A. baumannii and assess antibacterial activity against these important gram-negative organisms.
(§3) Briefly, cryo-preserved bacterial cultures of challenge strains are streaked for isolation on appropriate agar medium, in this case cation-adjusted Mueller Hinton agar. Following incubation to allow growth of the colonies, plates are sealed with parafilm and stored refrigerated for up to two weeks. For preparation of assay inoculum and to ensure low variability, at least 5 colonies are picked from the agar plates with an inoculating loop and aseptically transferred to a culture tube containing 3 mL of cation-adjusted Mueller Hinton broth (CAMHB). The broth culture is grown for 3-5 hours at 37° C. with shaking at 200 rpm. Meanwhile, 2-fold serial dilutions of test compounds are conducted in a 96-well plate with a final volume of 75 μL per well at 2-fold the final desired concentration. After the dilution plates are set up the growing cultures are then diluted in a cuvette containing CAMHB and the optical density is measured at 600 nm. The inoculum is diluted such that 75 μL of this culture in CAMHB results in a starting bacterial concentration of 2-8×10^5 CFU/mL when added to the dilution plates. The plates are incubated for 16-20 hours for Enterobacteriaceae and Pseudomonas and 20-24 hours for Acinetobacter at 37° C. The MIC values are read visually as the lowest concentration well with no bacterial growth.

[2] = tested on: P. aeruginosa ATCC 27853; assay: Broth microdilution MIC in CAMHB; format: cell-based; conditions: Pseudomonas aeruginosa, ATCC27853; MHB; read-out: Minimum Inhibitory Concentration, P. aeruginosa ATCC 27853
Method: as §1, §2, §3

[3] = tested on: E. coli 901C; assay: Broth microdilution MIC in CAMHB; format: cell-based; conditions: Escherichia coli, MHB, read-out: Minimum Inhibitory Concentration, E. coli 901C
Method: as §1, §2, §3

[4] = tested on: P. aeruginosa (ΔmexAB-oprM); assay: Broth microdilution MIC in CAMHB; format: cell-based; conditions: Pseudomonas aeruginosa, read-out: Minimum Inhibitory Concentration, P. aeruginosa ΔmexAB-OprM
Method: as §1, §2, §3

[5] = tested on: P. aeruginosa ATCC 35151; assay: Broth microdilution MIC in CAMHB; format: cell-based; conditions: Pseudomonas aeruginosa, ATCC35151; MHB; hyper-permeable strain; read-out: Minimum Inhibitory Concentration, P. aeruginosa ATCC 35151
Method: as §1, §2, §3

[6] = tested on: K. pneumoniae UMM producing SHV-5 and KPC-2; assay: Broth microdilution MIC in CAMHB; format: cell-based; conditions: Klebsiella pneumoniae, read-out: Minimum Inhibitory Concentration, K. pneumoniae UMM
Method: as §1, §2, §3

[7] = tested on: E. coli AG100A; assay: Broth microdilution MIC in CAMHB; format: cell-based; conditions: Escherichia coli, read-out: Minimum Inhibitory Concentration, E. coli AG100A
Method: as §1, §2, §3

[8] = tested on: E. coli D22; assay: Broth microdilution MIC in CAMHB; format: cell-based; conditions: Escherichia coli, MHB, read-out: Minimum Inhibitory Concentration, E. coli D22
Method: as §1, §2, §3

[9] = tested on: K. pneumoniae 848844 producing SHV-11 and KPC-2; assay: Broth microdilution MIC in CAMHB; format: cell-based; conditions: Klebsiella pneumoniae, read-out: Minimum Inhibitory Concentration, K. pneumoniae 848844
Method: as §1, §2, §3

[10] = tested on: A. baumannii ATCC 19606; assay: Broth microdilution MIC in CAMHB; format: cell-based; conditions: Acinetobacter baumannii, ATCC19606; MHB; read-out: Minimum Inhibitory Concentration, A. baumannii ATCC 19606
Method: as §1, §2, §3

[11] = tested on: E. coli AG100; assay: Broth microdilution MIC in CAMHB; format: cell-based; conditions: Escherichia coli, MHB, read-out: Minimum Inhibitory Concentration, E. coli AG100
Method: as §1, §2, §3

[12] = tested on: E. coli ATCC 25922; assay: Broth microdilution MIC in CAMHB; format: cell-based
Method: as §1, §2, §3

[13] = target: T1, P. aeruginosa PBP3 (Pseudomonas aeruginosa, UniProt G3XD46); assay: Bocillin-FL fluorescence polarization competition binding assay, P. aeruginosa PBP3; conditions: fluorescence polarization competition binding assay using Bocillin-FL
T1 construct: made in house
Text: Example I: Experimental Method for Penicillin-Binding Protein Binding Assays with Bocillin-FL Via Fluorescence Polarization
To determine the ability of boronic acid-based test PBP inhibitors to bind Penicillin Binding Proteins (PBPs), Bocillin-FL (fluorescently-labeled penicillin V; ThermoFisher Scientific) was used in a fluorescence polarization (FP) competition binding assay to assess inhibitor binding to PBP2, PBP3 or PBP4 from Escherichia coli (K12), PBP3 from Pseudomonas aeruginosa (PA01), PBP1a, PBP2 and PBP3 from Acinetobacter baumannii (ATCC 19606), and PBP2 from Neiserria gonorrheae (FA19). PBPs were cloned and purified as described previously (E. coli PBPs, King, D. T, et al., ACS Infectious Diseases 2015, 1, 175-184; P. aeruginosa PBP3, Han et. al., PNAS 2010, 107 (51), 22002-22007; A. baumannii PBPs, Penwell et. al., Antimicrob. Agents Chemother. 2015, 59 (3), 1680-1689; N. gonorrhoeae PBP2, Singh et. al., J Biol. Chem. 2019, 294 (38), 14020-14032). To establish assay conditions for competition binding, enzyme titration/saturation binding experiments were initially performed. Bocillin-FL was prepared at 0.2 μM in a buffer comprised of 50 mM Hepes (pH 8.0), 300 mM NaCl and 5% (v/v) glycerol for reactions with E. coli, P. aeruginosa and N. gonorrhoeae PBPs, and 25 mM Tris (pH 8.0), 200 mM NaCl and 10% (v/v) glycerol and 0.005% (v/v) Tween 20 for reactions with A. baumannii PBPs. Saturation binding was performed by mixing 40 μl of PBP solutions ranging in concentrations from 0-24 μM with 40 μl of the 0.2 μM Bocillin-FL solution, in individual wells of a black 384-well microplate. FP was measured immediately upon mixing (Excitation, 490 nm; Emission, 520 nm; g-factor, 0.96), using a Cytation3 (BioTek) microplate reader and measured continuously for up to 120 minutes. […] The competition binding assay (80 μl final volume) was validated using beta-lactams and PBPs at final concentrations of: 1.5 μM, E. coli PBP3; 0.75 μM, P. aeruginosa PBP3; 1 μM A. baumannii PBP1a; 2.5 μM A. baumannii PBP2; 0.2 μM A. baumannii PBP3; and […] N. gonorrhoeae PBP2. Bocillin-FL was at 0.1 μM (0.05 μM with A. baumannii PBP1a) and beta-lactam concentrations ranged from 0-1000 μM. […] Bocillin-FL was added and the FP immediately measured for up to 60 minutes (90 minutes for E. coli PBP2). […] The beta-lactam potency was reported as the concentration of beta-lactam required to reduce the amount of PBP bound-Bocillin-FL by 50% (EC50). […] Binding assays for boronic acid PBP inhibitors were performed in an identical fashion for the respective PBPs

[14] = wild-type parent strain E. coli AG100
[15] = Escherichia coli, ATCC25922; MHB; E. coli ATCC 25922; read-out: Minimum Inhibitory Concentration, E. coli 25922

T1 sequence (G3XD46 whole entry): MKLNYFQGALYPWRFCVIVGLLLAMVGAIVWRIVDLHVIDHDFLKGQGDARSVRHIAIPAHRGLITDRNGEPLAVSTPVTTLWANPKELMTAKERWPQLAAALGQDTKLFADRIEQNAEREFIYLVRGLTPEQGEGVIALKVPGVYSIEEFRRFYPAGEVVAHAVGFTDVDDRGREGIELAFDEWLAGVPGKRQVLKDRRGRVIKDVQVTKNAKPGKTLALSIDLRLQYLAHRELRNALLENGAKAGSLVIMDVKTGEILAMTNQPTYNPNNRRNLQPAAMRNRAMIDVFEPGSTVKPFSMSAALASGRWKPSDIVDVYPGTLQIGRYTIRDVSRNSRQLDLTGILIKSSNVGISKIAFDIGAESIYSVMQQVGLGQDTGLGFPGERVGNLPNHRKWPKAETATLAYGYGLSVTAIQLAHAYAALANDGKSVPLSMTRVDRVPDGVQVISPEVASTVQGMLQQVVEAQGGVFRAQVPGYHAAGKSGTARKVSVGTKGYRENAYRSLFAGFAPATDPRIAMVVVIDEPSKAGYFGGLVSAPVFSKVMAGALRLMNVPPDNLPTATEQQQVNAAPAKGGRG

Compound	MIC [1] [µg/mL]	MIC [2] [µg/mL]	MIC ([3]; E. coli 901C (hyper-permeable)) [µg/mL]	MIC [4] [µg/mL]	MIC [5] [µg/mL]	MIC [6] [µg/mL]	MIC [7] [µg/mL]	MIC ([8]; E. coli D22 (hyper-permeable)) [µg/mL]	MIC [9] [µg/mL]	MIC [10] [µg/mL]	MIC ([11]; E. coli AG100 (wild-type parent)) [µg/mL]	MIC ([12]; Escherichia coli, ATCC25922; E. coli ATCC 25922; MHB; read-out: Minimum Inhibitory Concentration, E. coli 25922) [µg/mL]	P. aeruginosa PBP3 Potency [13]	MIC ([3]; hyper-permeable E. coli 901C) [µg/mL]	MIC ([8]; hyper-permeable E. coli D22) [µg/mL]	MIC [11, 14] [µg/mL]	MIC [12, 15] [µg/mL]
CCN1CCN(C(=O)N[C@H](C(=O)N[C@H]2Cc3cccc(C(=O)O)c3OB2O)c2ccc(C(=O)O)c(Cl)c2F)C(=O)C1=O (single isomer, unassigned) [Example 221]	8 to 16 (≈ 13.2 to 26.5 µM)	> 128	> 128	32 to 64 (≈ 52.9 to 106 µM)	2 to 4 (≈ 3.31 to 6.61 µM)	0.5 to 1 (≈ 0.827 to 1.65 µM)	> 128	> 128	> 128	> 128	> 128	32 to 64 (≈ 52.9 to 106 µM)	C (C represents a potency between 10 and 30 μM)				
CCN1CCN(C(=O)N[C@@H](C(=O)N[C@H]2Cc3cccc(C(=O)O)c3OB2O)c2ccc(C(=O)O)c(Cl)c2F)C(=O)C1=O (single isomer, unassigned) [Example 222]	2 to 4 (≈ 3.31 to 6.61 µM)	> 128		32 to 64 (≈ 52.9 to 106 µM)	0.5 to 1 (≈ 0.827 to 1.65 µM)	< 0.25	> 128		> 128	> 128			D (D represents a potency <10 μM)	> 128	> 128	> 128	32 to 64 (≈ 52.9 to 106 µM)
NCCN1CCN(C(=O)N[C@@H](C(=O)N[C@H]2Cc3cccc(C(=O)O)c3OB2O)c2c(F)cccc2F)C(=O)C1=O (single isomer, unassigned) [Example 223]	8 to 16 (≈ 14.3 to 28.6 µM)	> 128		32 to 64 (≈ 57.2 to 114 µM)	2 to 4 (≈ 3.58 to 7.15 µM)	2 to 4 (≈ 3.58 to 7.15 µM)	> 128		> 128	> 128			D (D represents a potency <10 μM)	> 128	> 128	> 128	> 128
NCCN1CCN(C(=O)N[C@@H](C(=O)N[C@H]2Cc3cccc(C(=O)O)c3OB2O)c2c(Cl)cccc2Cl)C(=O)C1=O (single isomer, unassigned) [Example 224]	> 128	> 128		> 128	32 to 64 (≈ 54 to 108 µM)	8 to 16 (≈ 13.5 to 27 µM)	> 128		> 128	> 128			B (B represents a potency between 30 μM and 500 μM inclusive)	> 128	> 128	> 128	> 128
NCCCN1CCN(C(=O)N[C@@H](C(=O)N[C@H]2Cc3cccc(C(=O)O)c3OB2O)c2ccc(O)c(F)c2F)C(=O)C1=O (single isomer, unassigned) [Example 238]	0.5 to 1 (≈ 0.848 to 1.7 µM)	32 to 64 (≈ 54.3 to 109 µM)		2 to 4 (≈ 3.39 to 6.79 µM)	< 0.25	< 0.25	32 to 64 (≈ 54.3 to 109 µM)		8 to 16 (≈ 13.6 to 27.2 µM)	> 128			D (D represents a potency <10 μM)	32 to 64 (≈ 54.3 to 109 µM)	8 to 16 (≈ 13.6 to 27.2 µM)	32 to 64 (≈ 54.3 to 109 µM)	2 to 4 (≈ 3.39 to 6.79 µM)
NCCCN1CCN(C(=O)N[C@H](C(=O)N[C@H]2Cc3cccc(C(=O)O)c3OB2O)c2ccc(O)c(F)c2F)C(=O)C1=O (single isomer, unassigned) [Example 239]	8 to 16 (≈ 13.6 to 27.2 µM)	> 128		8 to 16 (≈ 13.6 to 27.2 µM)	2 to 4 (≈ 3.39 to 6.79 µM)	2 to 4 (≈ 3.39 to 6.79 µM)	> 128		> 128	> 128			C (C represents a potency between 10 and 30 μM)	> 128	> 128	> 128	> 128
CCN1C[C@H](C)N(C(=O)N[C@@H](C(=O)N[C@H]2Cc3cccc(C(=O)O)c3OB2O)c2ccc(O)c(F)c2F)C(=O)C1=O [Example 240, (3R)-3-(2-(2,3-difluoro-4-hydroxyphenyl)-2-((S)-4-ethyl-6-methyl-2,3-dioxopiperazine-1-carboxamido)acetamido)-2-hydroxy-3,4-dihydro-2H-benzo[e][1,2]oxaborinine-8-carboxylic acid]	2 to 4 (≈ 3.48 to 6.96 µM)	> 128		8 to 16 (≈ 13.9 to 27.9 µM)	2 to 4 (≈ 3.48 to 6.96 µM)	< 0.25	32 to 64 (≈ 55.7 to 111 µM)		32 to 64 (≈ 55.7 to 111 µM)	> 128			D (D represents a potency <10 μM)	> 128	32 to 64 (≈ 55.7 to 111 µM)	> 128	32 to 64 (≈ 55.7 to 111 µM)

From US20230114728A1 (Venatorx Pharmaceuticals, Inc., priority 2019, published 2023)
